In patent US7183252B2, “Indole peptidomimetics as thrombin receptor antagonists” (Ortho-McNeil Pharmaceutical, Inc., priority 1999, dated 2007):
Where two headings read alike, the source gives them in different places.

Legend:
gel-filtered platelets = assay: In vitro inhibition of thrombin-induced gel-filtered platelet aggregation; format: cell-based; details: human gel-filtered platelets, agonist thrombin 50 μL of 1 unit/mL, read-out: Thrmb IC50 (Thrombin-induced aggregation of gel-filtered platelets)
Outline: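 Gel-filtered (Sepharose 2B) human platelets from citrated PRP, 2×10^7 per sample, in Tyrode's buffer pH 7.4 with BSA and added calcium, preincubated with test compound. Aggregation induced by thrombin (50 μL of 1 unit/mL) and followed as light transmission over 3 min. Inhibition is taken relative to control-treated platelets.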

[1] = target: T1, thrombin receptor (PAR-1) (Homo sapiens, UniProt P25116); assay: In vitro thrombin receptor binding assay (CHRF membranes); details: tritiated 721-40 radioligand, read-out: Bndg IC50 (Thrombin receptor binding)
T1 construct: CHRF membranes (Jones, Biochim. Biophys. Acta 1992, 1136, 272) are thawed from −70° C; endogenous in cells; host or cells: CHRF cell membranes
T1 sequence (P25116 22-425): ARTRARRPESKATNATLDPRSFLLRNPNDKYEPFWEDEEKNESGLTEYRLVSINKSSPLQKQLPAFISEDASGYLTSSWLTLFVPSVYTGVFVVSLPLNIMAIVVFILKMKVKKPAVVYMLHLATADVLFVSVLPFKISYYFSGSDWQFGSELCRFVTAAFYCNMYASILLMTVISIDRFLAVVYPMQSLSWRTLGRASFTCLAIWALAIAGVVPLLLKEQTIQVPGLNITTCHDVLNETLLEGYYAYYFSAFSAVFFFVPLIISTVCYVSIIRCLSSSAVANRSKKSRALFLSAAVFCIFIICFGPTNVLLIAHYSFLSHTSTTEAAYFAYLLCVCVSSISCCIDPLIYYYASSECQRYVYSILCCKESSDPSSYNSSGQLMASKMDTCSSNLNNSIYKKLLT
Outline: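 CHRF cell membranes incubated 30 min with tritiated peptide agonist 721–40 and compound at 3.7 μg/mL final (0.6% DMSO) in HEPES/MgCl2/BSA buffer. Nonspecific binding defined with unlabeled 721–40; bound radioactivity counted after filtration onto PEI-treated filters.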

SMILES | IC50 (gel-filtered platelets; Platelet) [nM] | IC50 [1] [nM] | IC50 (gel-filtered platelets) [nM]
NCCNC(=O)[C@H](Cc1c[nH]cn1)NC(=O)[C@H](Cc1ccc(Cl)cc1)NC(=O)Nc1ccc2c(CN3CCCC3)cn(Cc3c(Cl)cccc3Cl)c2c1 [Compound 134] | 950 | 1200 | –
NCCNC(=O)[C@H](Cc1ccncc1)NC(=O)[C@H](Cc1ccc(Cl)cc1)NC(=O)Nc1ccc2c(CN3CCCC3)cn(Cc3c(Cl)cccc3Cl)c2c1 [Compound 135, L-Alaninamide, 4-chloro-N-[[[1-[(2,6-dichlorophenyl)methyl]-3-(1-pyrrolidinylmethyl)-1H-indol-6-yl]amino]carbonyl]-L-phenylalanyl-N-(2-aminoethyl)-3-(4-pyridinyl)-] | – | 890 | 690
NCCNC(=O)[C@H](Cc1cccs1)NC(=O)[C@H](Cc1ccc(Cl)cc1)NC(=O)Nc1ccc2c(CN3CCCC3)cn(Cc3c(Cl)cccc3Cl)c2c1 [Compound 136] | 550 | 1100 | –
NCCNC(=O)[C@H](Cc1cscn1)NC(=O)[C@H](Cc1ccc(Cl)cc1)NC(=O)Nc1ccc2c(CN3CCCC3)cn(Cc3c(Cl)cccc3Cl)c2c1 [Compound 137] | 940 | 810 | –
NCCNC(=O)[C@H](Cc1cccc(F)c1)NC(=O)[C@H](Cc1ccc(F)c(F)c1)NC(=O)Nc1ccc2c(CN3CCCC3)cn(Cc3c(Cl)cccc3Cl)c2c1 [Compound 138] | 330 | 2000 | –
CC(=N)NCCNC(=O)[C@H](Cc1ccncc1)NC(=O)[C@H](Cc1ccc(Cl)cc1)NC(=O)Nc1ccc2c(CN3CCCC3)cn(Cc3c(Cl)cccc3Cl)c2c1 [Compound 139] | 330 | 1000 | –
CC(=N)NCCNC(=O)[C@H](CCNC(C)=N)NC(=O)[C@H](Cc1ccc(F)c(F)c1)NC(=O)Nc1ccc2c(CN3CCCC3)cn(Cc3c(Cl)cccc3Cl)c2c1 [Compound 140] | 740 | 120 | –
NCC[C@H](NC(=O)[C@H](Cc1ccc(F)c(F)c1)NC(=O)Nc1ccc2c(CN3CCCC3)cn(Cc3c(Cl)cccc3Cl)c2c1)C(=O)NCCN1CCCC1 [Compound 141] | 200 | 70 | –
NCC[C@H](NC(=O)[C@H](Cc1ccc(F)c(F)c1)NC(=O)Nc1ccc2c(CN3CCCC3)cn(Cc3c(Cl)cccc3Cl)c2c1)C(=O)NCCc1c[nH]cn1 [Compound 142] | 1900 | 480 | –
CSCC[C@H](NC(=O)[C@H](Cc1ccc(F)c(F)c1)NC(=O)Nc1ccc2c(CN3CCCC3)cn(Cc3c(Cl)cccc3Cl)c2c1)C(=O)NCCN [Compound 143] | 290 | 20 | –
CCOC(=O)N1CCC(NC(=O)[C@H](CCN)NC(=O)[C@H](Cc2ccc(F)c(F)c2)NC(=O)Nc2ccc3c(CN4CCCC4)cn(Cc4c(Cl)cccc4Cl)c3c2)CC1 [Compound 144] | 320 | 70 | –
NCCCNC(=O)[C@H](Cc1ccncc1)NC(=O)[C@H](Cc1ccc(Cl)cc1)NC(=O)Nc1ccc2c(CN3CCCC3)cn(Cc3c(Cl)cccc3Cl)c2c1 [Compound 145] | 250 | 500 | –
NCCNC(=O)CCNC(=O)[C@H](Cc1ccc(Cl)cc1)NC(=O)Nc1ccc2c(CN3CCCC3)cn(Cc3c(Cl)cccc3Cl)c2c1 [Compound 146] | 11100 | 2800 | –
NCCNC(=O)CNC(=O)[C@H](Cc1cccc(F)c1)NC(=O)Nc1ccc2c(CN3CCCC3)cn(Cc3c(Cl)cccc3Cl)c2c1 [Compound 147] | 4400 | 420 | –
CC(C)[C@H](NC(=O)[C@H](Cc1ccc(Cl)cc1)NC(=O)Nc1ccc2c(CN3CCCC3)cn(Cc3c(Cl)cccc3Cl)c2c1)C(=O)NCCN [Compound 148] | 1400 | 140 | –
CCSC[C@H](NC(=O)[C@H](Cc1ccc(Cl)cc1)NC(=O)Nc1ccc2c(CN3CCCC3)cn(Cc3c(Cl)cccc3Cl)c2c1)C(=O)NCCN [Compound 149] | 1200 | 150 | –
NCCNC(=O)[C@H](CO)NC(=O)[C@H](Cc1ccc(F)c(F)c1)NC(=O)Nc1ccc2c(CN3CCCC3)cn(Cc3c(Cl)cccc3Cl)c2c1 [Compound 150] | 1400 | 100 | –
NCCNC(=O)[C@H](CSC(c1ccccc1)(c1ccccc1)c1ccccc1)NC(=O)[C@H](Cc1ccc(F)c(F)c1)NC(=O)Nc1ccc2c(CN3CCCC3)cn(Cc3c(Cl)cccc3Cl)c2c1 [Compound 151] | – | 450 | 2900

SMILES | IC50 (gel-filtered platelets; Platelet) [nM] | IC50 [1] [nM] | IC50 (gel-filtered platelets) [nM]
Cc1cccc(Cn2cc(CN3CCCC3)c3ccc(NC(=O)N[C@@H](Cc4ccc(F)c(F)c4)C(=O)N[C@@H](Cc4cccs4)C(=O)NCCCN)cc32)c1 [Compound 153] | 790 | 27000 | –
NCC[C@H](NC(=O)[C@H](Cc1ccc(F)c(F)c1)NC(=O)Nc1ccc2c(CN3CCSC3)cn(Cc3c(Cl)cccc3Cl)c2c1)C(=O)NCc1ccccc1 [Compound 154] | 12900 | 750 | –
NCC[C@H](NC(=O)[C@H](CC1CCCCC1)NC(=O)Nc1ccc2c(CN3CCCC3)cn(Cc3c(Cl)cccc3Cl)c2c1)C(=O)NCc1ccccc1 [Compound 155] | 11000 | 13500 | –
COCC[C@H](NC(=O)[C@H](Cc1ccc(F)c(F)c1)NC(=O)Nc1ccc2c(CN3CCCC3)cn(Cc3c(Cl)cccc3Cl)c2c1)C(=O)NCCN [Compound 156] | 600 | 40 | –
C[C@@H](NC(=O)[C@H](CCN)NC(=O)[C@H](Cc1ccc(F)c(F)c1)NC(=O)Nc1ccc2c(CN3CCCC3)cn(Cc3c(Cl)cccc3Cl)c2c1)c1ccccc1 [Compound 157] | – | 480 | 660
NCC[C@H](NC(=O)[C@H](Cc1ccc(F)c(F)c1)NC(=O)Nc1ccc2c(CN3CCCC3)cn(Cc3c(Cl)cccc3Cl)c2c1)C(=O)NCc1ccc([N+](=O)[O-])cc1 [Compound 158] | – | 1800 | 740
Cc1coc(CNC(=O)[C@H](CCN)NC(=O)[C@H](Cc2ccc(F)c(F)c2)NC(=O)Nc2ccc3c(CN4CCCC4)cn(Cc4c(Cl)cccc4Cl)c3c2)c1 [Compound 159] | – | 700 | 430
COc1ccc(C[C@H](NC(=O)Nc2ccc3c(c2)c(CN2CCCCC2)cn3Cc2ccc(F)cc2)C(=O)N[C@@H](CCCNC(=N)N)C(=O)NCc2ccccc2)cc1 [Compound 162] | 13000 | 5300 | –
COc1ccc(C[C@H](NC(=O)Nc2ccc3c(c2)c(CN2CCSC2)cn3Cc2ccc(F)cc2)C(=O)N[C@@H](CCCNC(=N)N)C(=O)NCc2ccccc2)cc1 [Compound 163] | 30000 | 3000 | –
NCC[C@H](NC(=O)[C@H](Cc1ccc(F)c(F)c1)NC(=O)Nc1ccc2c(c1)c(CN1CCCC1)cn2Cc1ccc(F)cc1)C(=O)NCc1ccccc1 [Compound 164] | 13600 | 11800 | –
NCC[C@H](NC(=O)[C@H](Cc1ccc(F)c(F)c1)NC(=O)Nc1cccc2c1c(CN1CCCC1)cn2Cc1c(Cl)cccc1Cl)C(=O)NCc1ccccc1 [Compound 165] | 4800 | 49600 | –
NCC[C@H](NC(=O)[C@H](Cc1ccc(F)c(F)c1)NC(=O)Nc1cccc2c1c(CN1CCCC1)cn2Cc1c(Cl)cccc1Cl)C(=O)NCCN1CCCC1 [Compound 166] | 40300 | 2000 | –
NCC[C@H](NC(=O)[C@H](Cc1ccc(F)c(F)c1)NC(=O)Nc1cccc2c(CN3CCCC3)cn(Cc3c(Cl)cccc3Cl)c12)C(=O)NCc1ccccc1 [Compound 167] | 8500 | 67600 | –
Cc1ccccc1Cn1cc(CN2CCCC2)c2cccc(NC(=O)N[C@@H](Cc3ccc(F)c(F)c3)C(=O)N[C@@H](CCN)C(=O)NCc3ccccc3)c21 [Compound 168] | 8300 | 64300 | –
N=C(N)NCCC[C@H](NC(=O)[C@H](Cc1ccc(F)c(F)c1)NC(=O)Nc1ccc2c(CN3CCCC3)c(-c3ccccc3)n(Cc3ccc(F)cc3)c2c1)C(=O)NCc1ccc(F)cc1 [Compound 171, L-Argininamide, 3,4-difluoro-N-[[[1-[(4-fluorophenyl)methyl]-2-phenyl-3-(1-pyrrolidinylmethyl)-1H-indol-6-yl]amino]carbonyl]-L-phenylalanyl-N-[(4-fluorophenyl)methyl]-] | 1000 | 100 | –
Cc1ccccc1Cn1c(Cl)c(CN2CCCC2)c2ccc(NC(=O)N[C@@H](Cc3ccc(F)c(F)c3)C(=O)N[C@@H](CCCNC(=N)N)C(=O)NCc3ccccc3)cc21 [Compound 172] | > 10000 | 6800 | –
Cc1ccccc1Cn1c(Cl)c(CN2CCCC2)c2ccc(NC(=O)N[C@@H](Cc3cccc(F)c3)C(=O)N[C@@H](CCCN=C(N)N)C(=O)NCc3ccc(F)cc3)cc21 [Compound 173] | 2000 | 760 | –
NCCNC(=O)[C@H](Cc1ccncc1)NC(=O)[C@H](Cc1ccc(F)c(F)c1)NC(=O)c1ccc2c(CN3CCCC3)cn(Cc3c(Cl)cccc3Cl)c2c1 [Compound 175, L-Alaninamide, N-[[1-[(2,6-dichlorophenyl)methyl]-3-(1-pyrrolidinylmethyl)-1H-indol-6-yl]carbonyl]-3,4-difluoro-L-phenylalanyl-N-(2-aminoethyl)-3-(4-pyridinyl)-] | 1600 | 90 | –
